Patent publication US20260207577A1, “METHODS OF USING FACTOR B INHIBITORS” (priority 2023, published 2026)

Experiments:
Assay type in all cases: in vivo, human
[1] = tested on: native C3G patients; assay: Phase 2 study CLNP023X2202, proteinuria and renal function; conditions: native C3G patients (N=16), final dose levels of 200 mg b.i.d.
Method: (§1) The proposed iptacopan dose of 200 mg b.i.d. is considered appropriate based on data from the Phase 2 study, CLNP023X2202. […] Thus, the 200 mg b.i.d. dose of iptacopan appears to produce maximum changes in all of the complement biomarkers that have been evaluated to date in C3G patients.

[2] = tested on: native kidney C3G patients; assay: Phase 2 study CLNP023X2202, safety and tolerability
Method: as §1

[3] = tested on: alternative complement pathway; assay: Phase 2 study CLNP023X2202, complement biomarkers
Method: as §1

CCO[C@H]1CCN(Cc2c(OC)cc(C)c3[nH]ccc23)[C@H](c2ccc(C(=O)O)cc2)C1 [iptacopan, 4-((2S,4S)-(4-ethoxy-1-((5-methoxy-7-methyl-1H-indol-4-yl)methyl)piperidin-2-yl))benzoic acid]
renal function (SCR, CrCl, eGFR) [1]: stabilization of renal function | reduction in UPCR from baseline to Week 12 ([1]; two-sided p=0.0003): 45% | changes in hematology, biochemistry, urinalysis, vital signs or ECG parameters ([2]; in vivo): no notable changes | discontinuations due to adverse events ([2]; in vivo): no definitive discontinuations due to adverse events | tolerability ([2]; in vivo): well tolerated without unexpected or new safety findings | deaths or serious adverse events during the treatment period ([2]; native kidney C3G patients): no deaths or serious adverse events were observed | C3 levels, dose dependence ([3]; 16 native C3G patients): increased dose-dependently | dose at which maximum decreases in plasma Bb, plasma sC5b-9 and urine sC5b-9 were obtained ([3]; 16 native C3G patients): 100 mg b.i.d. | dose at which maximum decreases in the Wieslab assay and increases in C3 were observed ([3]; 16 native C3G patients): 200 mg b.i.d. | sC5b-9, Bb, the Wieslab assay and urine sC5b-9, dose dependence ([3]; 16 native C3G patients): decreased dose-dependently | plasma Bb, plasma and urine sC5b-9 ([3]; Cohort A): reduction | Wieslab activity ([3]; at 200 mg b.i.d): full inhibition | serum C3 levels ([3]; both cohorts): overall normalization | inhibition of alternative complement pathway ([3]; both cohorts, upon iptacopan treatment): Dose-dependent, profound and sustained inhibition
